This note sets out measurements from patent US20110172147A1, “NEUROPEPTIDE-2 RECEPTOR (Y-2R) AGONISTS” (priority 2009, published 2011).

What all share (type): cell-based
For assay [1], the target named is T1, Y1R (Homo sapiens, UniProt P25929).
T1 sequence (P25929 1-384): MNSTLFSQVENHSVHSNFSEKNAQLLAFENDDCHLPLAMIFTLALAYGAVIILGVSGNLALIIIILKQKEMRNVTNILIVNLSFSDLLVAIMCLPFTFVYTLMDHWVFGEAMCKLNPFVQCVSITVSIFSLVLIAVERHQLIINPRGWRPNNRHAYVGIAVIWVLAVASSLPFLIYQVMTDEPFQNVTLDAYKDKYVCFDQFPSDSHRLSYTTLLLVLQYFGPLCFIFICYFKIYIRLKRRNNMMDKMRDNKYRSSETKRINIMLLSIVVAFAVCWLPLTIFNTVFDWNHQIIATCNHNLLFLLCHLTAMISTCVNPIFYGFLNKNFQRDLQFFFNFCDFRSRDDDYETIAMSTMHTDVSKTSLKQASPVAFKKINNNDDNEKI
The assay is described as follows: CaFlux Assay (FLIPR), Y1R.

Assay [2] has as its target Y4R (Homo sapiens, UniProt P50391). The assay is described as follows: CaFlux Assay (FLIPR), Y4R.
Assay [3] has as its target T2, Y5R (Homo sapiens, UniProt Q15761).
T2 sequence (Q15761 1-445): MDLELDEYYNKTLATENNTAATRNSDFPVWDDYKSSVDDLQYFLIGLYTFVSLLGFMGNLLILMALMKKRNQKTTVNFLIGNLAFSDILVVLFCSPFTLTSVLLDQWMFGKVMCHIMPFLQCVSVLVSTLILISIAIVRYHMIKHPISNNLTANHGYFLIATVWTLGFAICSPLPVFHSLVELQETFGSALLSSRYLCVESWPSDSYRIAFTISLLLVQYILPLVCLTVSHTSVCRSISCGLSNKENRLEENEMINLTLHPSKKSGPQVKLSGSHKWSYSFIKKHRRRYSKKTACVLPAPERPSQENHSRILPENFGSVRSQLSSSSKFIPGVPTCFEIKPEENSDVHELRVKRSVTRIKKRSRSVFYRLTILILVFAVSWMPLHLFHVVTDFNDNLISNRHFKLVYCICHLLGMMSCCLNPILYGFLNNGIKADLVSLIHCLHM
The assay is described as follows: CaFlux Assay (FLIPR), Y5R.

Assay [4] addresses T3, hNPY2R (Homo sapiens, UniProt P49146).
T3 sequence (P49146 1-381): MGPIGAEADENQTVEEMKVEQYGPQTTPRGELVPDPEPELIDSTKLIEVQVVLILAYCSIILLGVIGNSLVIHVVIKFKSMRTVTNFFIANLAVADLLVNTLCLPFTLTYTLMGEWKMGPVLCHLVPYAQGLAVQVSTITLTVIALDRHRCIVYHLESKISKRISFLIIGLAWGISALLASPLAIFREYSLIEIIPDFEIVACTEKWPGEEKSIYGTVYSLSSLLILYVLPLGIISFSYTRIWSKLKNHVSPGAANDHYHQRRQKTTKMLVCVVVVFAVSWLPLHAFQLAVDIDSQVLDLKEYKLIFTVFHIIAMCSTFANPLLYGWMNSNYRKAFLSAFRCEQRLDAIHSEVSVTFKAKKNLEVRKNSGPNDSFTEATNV
The assay is described as follows: cAMP Agonist Assay, HEK293/hNPY2R. Also on record: expressed in transfected cells; host or cells: HEK293/hNPY2R (G418 selection). Put shortly:
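HEK293/hNPY2R cells (10,000/well, overnight) stimulated 30 min at room temperature with compound plus 5 μM forskolin and 0.5 mM IBMX (1.1% DMSO final). Lysate cAMP measured by competitive chemiluminescent ELISA (AP conjugate, CSPD substrate); quadruplicates.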

Assay [5] addresses T3, hNPY2R. The assay is described as follows: CaFlux Assay (FLIPR), Y2R. Also noted: expressed in transfected cells; host or cells: HEK-293 stably transfected with G protein chimera Gαqi9. The method, boiled down: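 Calcium flux read by FLIPR in HEK-293 clones co-expressing chimeric Gαqi9 and receptor; compounds in HBSS/20 mM HEPES/0.05% BSA. Baseline-subtracted peak fluorescence, monitored 100 s after addition, is reported relative to the positive control's maximal response.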

*1 amine or outer side, *2 acyl side, *3 side chain or, on linkers, in order; H or OH if unused. Where a SMILES comes first, the peptide text is derived from it. [ ]: non-standard residue; d: D form. The star is where a group is joined. MeO(CH2CH2O)23CH2CH2CO = COCCOCCOCCOCCOCCOCCOCCOCCOCCOCCOCCOCCOCCOCCOCCOCCOCCOCCOCCOCCOCCOCCOCCOCCC(=O)*; X1 = O=C(Cn1cnc2ccc(N3CCN([*:1])CC3)cc2c1=O)[*:2]; Arachidoyl = CCCCCCCCCCCCCCCCCCCC(=O)*; NMeR = CN[C@@H](CCCNC(=N)N)C(=O)O; Cit = NC(=O)NCCC[C@H](N)C(=O)O; Guanidino = N=C(N)N*

Chain of Y4R (P50391 whole entry): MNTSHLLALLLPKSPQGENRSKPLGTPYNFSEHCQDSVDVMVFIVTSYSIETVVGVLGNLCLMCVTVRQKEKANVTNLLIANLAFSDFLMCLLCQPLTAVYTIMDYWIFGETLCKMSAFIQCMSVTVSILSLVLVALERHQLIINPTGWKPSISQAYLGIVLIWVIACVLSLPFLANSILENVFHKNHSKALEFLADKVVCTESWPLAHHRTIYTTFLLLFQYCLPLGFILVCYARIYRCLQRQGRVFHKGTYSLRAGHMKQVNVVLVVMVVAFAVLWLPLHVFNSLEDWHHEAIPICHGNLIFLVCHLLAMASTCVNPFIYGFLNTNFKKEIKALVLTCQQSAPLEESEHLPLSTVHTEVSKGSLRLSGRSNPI

Take `CCCCCCCCCCCCCCCCCCCC(=O)N[C@@H](CCC(=O)O)C(=O)N[C@@H](CCC(=O)O)C(=O)N[C@H](C(=O)N[C@@H](CCCCNC(=O)CCOCCOCCOCCOCCOCCOCCOCCOCCOCCOCCOCCOC)C(=O)N1CCN(c2ccc3ncn(CC(=O)N[C@@H](CCCNC(=N)N)C(=O)N[C@@H](Cc4c[nH]cn4)C(=O)N[C@@H](Cc4ccc(O)cc4)C(=O)N[C@@H](CC(C)C)C(=O)N[C@@H](CC(N)=O)C(=O)N[C@@H](Cc4c[nH]c5ccccc45)C(=O)N[C@H](C(=O)N[C@H](C(=O)N[C@@H](CCCNC(=N)N)C(=O)N[C@@H](CCC(N)=O)C(=O)N(C)[C@@H](CCCNC(=N)N)C(=O)N[C@@H](Cc4ccc(O)cc4)C(N)=O)[C@@H](C)O)C(C)C)c(=O)c3c2)CC1)[C@@H](C)CC` [Example 46]: the EC50 is > 9000 nM in assay [1]; > 9000 nM in assay [2]; 4580 nM in assay [3]; 0.29 nM in assay [4]; 0.214 nM in assay [5].
In the case of `CCCCCCCCCCCCCCCC(=O)NCCCCCC(=O)N[C@H](C(=O)N[C@@H](CCCCNC(=O)CCOCCOCCOCCOCCOCCOCCOCCOCCOCCOCCOCCOCCOCCOCCOCCOCCOCCOCCOCCOCCOCCOCCOCCOC)C(=O)N1CCN(c2ccc3ncn(CC(=O)N[C@@H](CCCNC(=N)N)C(=O)N[C@@H](Cc4c[nH]cn4)C(=O)N[C@@H](Cc4ccc(O)cc4)C(=O)N[C@@H](CC(C)C)C(=O)N[C@@H](CC(N)=O)C(=O)N[C@@H](Cc4c[nH]c5ccccc45)C(=O)N[C@H](C(=O)N[C@H](C(=O)N[C@@H](CCCNC(=N)N)C(=O)N[C@@H](CCC(N)=O)C(=O)N(C)[C@@H](CCCNC(=N)N)C(=O)N[C@@H](Cc4ccc(O)cc4)C(N)=O)[C@@H](C)O)C(C)C)c(=O)c3c2)CC1)[C@@H](C)CC` [Example 34], the EC50 is > 5000 nM in assay [1]; > 5000 nM in assay [2]; 988 nM in assay [3]; 0.18 nM in assay [4]; 0.068 nM in assay [5].
Take `CCCCCCCCCCCCCCCCCCCC(=O)N[C@@H](CCC(=O)O)C(=O)N[C@@H](CCC(=O)O)C(=O)N[C@H](C(=O)N[C@@H](CCCCNC(=O)CCOCCOCCOCCOCCOCCOCCOCCOCCOCCOCCOCCOCCOCCOCCOCCOCCOCCOCCOCCOCCOCCOCCOCCOC)C(=O)N1CCN(c2ccc3ncn(CC(=O)N[C@@H](CCCNC(N)=O)C(=O)N[C@@H](Cc4c[nH]cn4)C(=O)N[C@@H](Cc4ccc(O)cc4)C(=O)N[C@@H](CC(C)C)C(=O)N[C@@H](CC(N)=O)C(=O)N[C@@H](Cc4c[nH]c5ccccc45)C(=O)N[C@H](C(=O)N[C@H](C(=O)N[C@@H](CCC(=O)NC(=N)N)C(=O)N[C@@H](CCC(N)=O)C(=O)N(C)[C@@H](CCCNC(=N)N)C(=O)N[C@@H](Cc4ccc(O)cc4)C(N)=O)[C@@H](C)O)C(C)C)c(=O)c3c2)CC1)[C@@H](C)CC` [Example 51] (Arachidoyl-EEIK(MeO(CH2CH2O)23CH2CH2CO)[X1][Cit]HYLNWVTE(Guanidino)Q[NMeR]Y-NH2): the EC50 in assay [1] was > 6000 nM; in assay [2] it was > 6000 nM; in assay [3], > 6000 nM; in assay [4], 5.5 nM; in assay [5], 9.4 nM.
Take `CCCCCCCCCCCCCCCC(=O)NCCCCCC(=O)N[C@H](C(=O)N[C@@H](CCCCNC(=O)CCOCCOCCOCCOCCOCCOCCOCCOCCOCCOCCOCCOCCOCCOCCOCCOC)C(=O)N1CCN(c2ccc3ncn(CC(=O)N[C@@H](CCCNC(N)=O)C(=O)N[C@@H](Cc4c[nH]cn4)C(=O)N[C@@H](Cc4ccc(O)cc4)C(=O)N[C@@H](CC(C)C)C(=O)N[C@@H](CC(N)=O)C(=O)N[C@@H](Cc4c[nH]c5ccccc45)C(=O)N[C@H](C(=O)N[C@H](C(=O)N[C@@H](CCCNC(=N)N)C(=O)N[C@@H](CCC(N)=O)C(=O)N(C)[C@@H](CCCNC(=N)N)C(=O)N[C@@H](Cc4ccc(O)cc4)C(N)=O)[C@@H](C)O)C(C)C)c(=O)c3c2)CC1)[C@@H](C)CC` [Example 32]: the EC50 was > 6000 nM in assay [1]; > 6000 nM in assay [2]; 4760 nM in assay [3]; 0.23 nM in assay [4]; 0.15 nM in assay [5].
Take `CCCCCCCCCCCCCCCC(=O)NCCOCCNC(=O)CCC(=O)NCCCC[C@H](NC(=O)[C@@H](NC(=O)CCOCCOCCOCCOCCOCCOCCOCCOCCOCCOCCOCCOCCOCCOCCOCCOCCOCCOCCOCCOCCOCCOCCOCCOC)[C@@H](C)CC)C(=O)N1CCN(c2ccc3ncn(CC(=O)N[C@@H](CCCNC(=N)N)C(=O)N[C@@H](Cc4c[nH]cn4)C(=O)N[C@@H](Cc4ccc(O)cc4)C(=O)N[C@@H](CC(C)C)C(=O)N[C@@H](CC(N)=O)C(=O)N[C@@H](Cc4c[nH]c5ccccc45)C(=O)N[C@H](C(=O)N[C@H](C(=O)N[C@@H](CCCNC(=N)N)C(=O)N[C@@H](CCC(N)=O)C(=O)N(C)[C@@H](CCCNC(=N)N)C(=O)N[C@@H](Cc4ccc(O)cc4)C(N)=O)[C@@H](C)O)C(C)C)c(=O)c3c2)CC1` [Example 15]: the EC50 in assay [1] was > 5000 nM; in assay [2] it was > 5000 nM; in assay [3] it was 248 nM; in assay [4], 0.06 nM; in assay [5], 0.084 nM. Further, the “Y5R FLIPR agonist character (partial agonist mark)” value in assay [3] (FLIPR) is on record as “P.A”.
On to `CCCCCCCCCCCCCCCC(=O)NCCCCCC(=O)NCCCC[C@H](NC(=O)[C@@H](NC(=O)CCOCCOCCOCCOCCOCCOCCOCCOCCOCCOCCOCCOCCOCCOCCOCCOCCOCCOCCOCCOCCOCCOCCOCCOC)[C@@H](C)CC)C(=O)N1CCN(c2ccc3ncn(CC(=O)N[C@@H](CCCNC(=N)N)C(=O)N[C@@H](Cc4c[nH]cn4)C(=O)N[C@@H](Cc4ccc(O)cc4)C(=O)N[C@@H](CC(C)C)C(=O)N[C@@H](CC(N)=O)C(=O)N[C@@H](Cc4c[nH]c5ccccc45)C(=O)N[C@H](C(=O)N[C@H](C(=O)N[C@@H](CCCNC(=N)N)C(=O)N[C@@H](CCC(N)=O)C(=O)N(C)[C@@H](CCCNC(=N)N)C(=O)N[C@@H](Cc4ccc(O)cc4)C(N)=O)[C@@H](C)O)C(C)C)c(=O)c3c2)CC1` [Example 11], for which the EC50 in assay [1] is > 5000 nM; in assay [2] it was > 5000 nM; in assay [3], 915 nM; in assay [4], 0.08 nM; in assay [5], 0.058 nM.
`CCCCCCCCCCCCCCCC(=O)NCCCCCC(=O)NCCCC[C@H](NC(=O)[C@@H](NC(=O)COCCOCCOCCOCCOCCOC)[C@@H](C)CC)C(=O)N1CCN(c2ccc3ncn(CC(=O)N[C@@H](CCCNC(=N)N)C(=O)N[C@@H](Cc4c[nH]cn4)C(=O)N[C@@H](Cc4ccc(O)cc4)C(=O)N[C@@H](CC(C)C)C(=O)N[C@@H](CC(N)=O)C(=O)N[C@@H](Cc4c[nH]c5ccccc45)C(=O)N[C@H](C(=O)N[C@H](C(=O)N[C@@H](CCCNC(=N)N)C(=O)N[C@@H](CCC(N)=O)C(=O)N(C)[C@@H](CCCNC(=N)N)C(=O)N[C@@H](Cc4ccc(O)cc4)C(N)=O)[C@@H](C)O)C(C)C)c(=O)c3c2)CC1` [Example 7]: the EC50 is > 5000 nM in assay [1]; > 5000 nM in assay [2]; 1130 nM in assay [3]; 0.16 nM in assay [4]; 0.044 nM in assay [5].

What is called EC50 is the concentration that produces a half-maximal response.
